Literature values, collected in patent publication US6627665B2 (Arch Chemicals, Inc., priority 2001, dated 2003).

Tested on: rats

On1ccccc1=S.On1ccccc1=S.[Cu] [Copper pyrithione powder, copper pyrithione]
acute inhalation toxicity relative to zinc pyrithione powder: more toxic than zinc pyrithione powder
